Data taken from patent US5639603A, “Synthesizing and screening molecular diversity” (Affymax Technologies N.V., priority 1993, dated 1997).
Where a SMILES comes first, the peptide text is derived from it. Where no end group is shown, it is not given here. [ ]: non-standard residue; d: D form.

Biological target: monoclonal antibody D32.39
Assay: competition binding experiment with radiolabelled tracer peptide on D32.39-coated wells
Conditions: competition with 33P-labelled tracer LRRASLGGGRRQFKVVT 50 pM; wells coated with D32.39 0.1 μg/mL; 2 hr at 4° C.; IC50 taken as close to Kd
Method: The binding affinities of various peptides for the monoclonal antibody D32.39 were measured in a competition binding experiment. […] The peptide mixtures were added to polystyrene wells coated with D32.39 (0.1 μg/mL). Samples were incubated 2 hr. at 4° C., the wells washed with PBS, and the radioactivity associated with each well was counted and used to generate a competitive binding curve. Under the conditions of the assay the IC50 should be close to the dissociation constant (Kd) for the peptide.

Row | Compound | Kd [µM]
1 | CC(=O)N[C@@H](CCCCN)C(=O)N[C@@H](CCC(N)=O)C(=O)N[C@@H](Cc1ccccc1)C(=O)N[C@@H](CCCCN)C(=O)N[C@H](C(=O)N[C@H](C(=O)N[C@@H](CCCCN)C(=O)N[C@H](C(=O)O)[C@@H](C)O)[C@@H](C)O)C(C)C [KQFKVTKT] (Ac-KQFKVTKT-OH) | 0.34
2 | CC(=O)N[C@@H](CCC(N)=O)C(=O)N[C@@H](C(=O)N[C@@H](CCCNC(=N)N)C(=O)N[C@@H](CCC(N)=O)C(=O)N[C@@H](Cc1ccccc1)C(=O)N[C@@H](CCCCN)C(=O)N[C@H](C(=O)N[C@H](C(=O)O)[C@@H](C)O)[C@@H](C)O)C(C)C [QvRQFKTT] (Ac-Q[dV]RQFKTT-OH) | 0.016
3 | CC(=O)N[C@H](C(=O)N[C@@H](Cc1ccccc1)C(=O)N[C@@H](CCCNC(=N)N)C(=O)N[C@@H](CCC(N)=O)C(=O)N[C@@H](Cc1ccccc1)C(=O)N[C@@H](CCCCN)C(=O)N[C@H](C(=O)N[C@H](C(=O)O)[C@@H](C)O)C(C)C)[C@@H](C)O [TFRQFKVT] (Ac-TFRQFKVT-OH) | 0.00029
4 | CC(=O)N[C@H](C(=O)N[C@@H](Cc1ccccc1)C(=O)N[C@@H](CCCNC(=N)N)C(=O)N[C@@H](C(=O)N[C@@H](Cc1ccccc1)C(=O)N[C@@H](CCCNC(=N)N)C(=O)N[C@H](C(=O)N[C@H](C(=O)O)[C@@H](C)O)C(C)C)C(C)C)[C@@H](C)O [TFRvFRVT] (Ac-TFR[dV]FRVT-OH) | 1.4
5 | CC(=O)N[C@H](C(=O)N[C@@H](CCC(N)=O)C(=O)N[C@@H](Cc1ccccc1)C(=O)N[C@@H](CCCCN)C(=O)N[C@H](C(=O)N[C@H](C(=O)N[C@@H](CCCCN)C(=O)N[C@H](C(=O)O)[C@@H](C)O)[C@@H](C)O)C(C)C)[C@@H](C)O [TQFKVTKT] (Ac-TQFKVTKT-OH) | 0.56
6 | KQFKVTQT | 0.41
7 | QQFKVVQT | 0.37
8 | RQFRTVQT | 0.076
9 | TTRRFRVT | 0.0043
10 | TVRQFKTT | 0.0088

Test system: anti-dynorphin B mAb D32.39
Assay: flow cytometry (FACS) staining of beads with mAb D32.39 and phycoerythrin-conjugated second antibody
Format: binding, mouse
Conditions: 10 μm beads carrying peptide and 69-mer oligonucleotide tag; blank beads unstained
Method: The binding of mAb D32.39 to control beads and to the bead library was analyzed by flow cytometry. […] By contrast, only a small fraction of the encoded library bound D32.39. Analysis of 10^5 events indicated ~2% of the library stained above background levels. […] The amplification reactions contained dUTP and uracil DNA glycosidase to prevent carryover contamination with soluble product from previous amplifications (see Longo et al., 1990, Gene 93: 125-128, incorporated herein by reference).
A portion of a library (typically 0.5-2 mg of beads) was suspended in blocking buffer (PBS, 1% BSA, 0.05% Tween-20) and incubated at room temperature for 1 hr. The beads were pelleted by centrifugation and resuspended in a solution of mAb D32.39 ([…] in blocking buffer). The suspension was incubated on ice for 30 min., pelleted by centrifugation, and washed with blocking buffer. The beads were then suspended in a solution of phycoerythrin-conjugated goat anti-mouse antibody (Molecular Probes) for 20 min. on ice. The beads were washed in blocking buffer and diluted in PBS for delivery into the fluorescence activated cell sorting (FACS) instrument (Becton Dickinson FACStar Plus). Beads which had bound the mAb D32.39 were identified by their acquired fluorescence. Individual beads from both the most brightly stained 0.17% of the library and from the region having the lowest fluorescence (ca. 98%) were sorted into PCR microfuge vials. Specific binding of D32.39 to the beads was blocked by preincubation of the mAb with the soluble peptide Ac-RQFKVVT-OH (SEQ ID NO:2) at a final concentration of 10 μM.

Row | Compound | staining by mAb D32.39 of beads carrying the sequence
11 | RQFKVVT (RQFKVVT-NH2) [H-Arg-Gln-Phe-Lys-Val-Val-Thr-NH2, C-terminal seven amino acid fragment of the opioid peptide dynorphin B; positive control] | strongly stained

Same assay, conditions: flow cytometry; soluble peptide at final concentration 10 μM

Row | Compound | blocking of D32.39 binding to library beads by preincubating the mAb with soluble peptide
12 | CC(=O)N[C@@H](CCCNC(=N)N)C(=O)N[C@@H](CCC(N)=O)C(=O)N[C@@H](Cc1ccccc1)C(=O)N[C@@H](CCCCN)C(=O)N[C@H](C(=O)N[C@H](C(=O)N[C@H](C(=O)O)[C@@H](C)O)C(C)C)C(C)C [Ac-RQFKVVT-OH] (Ac-RQFKVVT-OH) | blocked
13 | RQFKVVT (RQFKVVT-NH2) [H-Arg-Gln-Phe-Lys-Val-Val-Thr-NH2, C-terminal seven amino acid fragment of the opioid peptide dynorphin B; positive control] | completely blocked

Biological target: anti-dynorphin B mAb D32.39
Assay: not given
Conditions: soluble hepta-peptide; see Cull et al.; cited from earlier work

Row | Compound | Kd [µM]
14 | RQFKVVT (RQFKVVT-NH2) [H-Arg-Gln-Phe-Lys-Val-Val-Thr-NH2, C-terminal seven amino acid fragment of the opioid peptide dynorphin B; positive control] | ~0.001
